Tested on: MOLT-4 cells
Test: MOLT-4 Cell Proliferation Assay (CellTiter-Glo)
Format: cell-based
Conditions: Homo sapiens, 72 h, read-out: MOLT-4 CTG IC50
Protocol: Cell proliferation was measured using the CellTiter-Glo® Luminescent Cell Viability Assay. The assay involved the addition of a single reagent (CellTiter-Glo® Reagent) directly to cells cultured in serum-supplemented medium. MOLT-4 cells (ATCC, CRL-1582) were cultured according to ATCC recommendations and were seeded at 50,000 cells per well.
Each compound evaluated was prepared as a DMSO stock solution (10 mM). Compounds were tested in duplicate on each plate, with a 10-point serial dilution curve (1:3 dilution). The highest compound concentration was 10 μM (final), with a 0.1% final DMSO concentration. Plates were then incubated at 37° C., 5% CO2 for 72 h, cell plates were equilibrated at rt for approximately 30 mins. An equi-volume amount of CellTiter-Glo® Reagent (100 μL) was added to each well. Plates were mixed for 2 mins on an orbital shaker to induce cell lysis and then incubated at rt for 10 mins to stabilize the luminescent signal. Luminescence was recorded using a Envision plate reader according to CellTiter-Glo protocol. IC50 of each compound was calculated using GraphPad Prism by nonlinear regression analysis.

Row | Compound | IC50 [nM]
1 | Cc1ncsc1-c1ccc([C@H](C)NC(=O)[C@@H]2C[C@@H](O)CN2C(=O)[C@@H](NC(=O)CCCCCN2CCN(CC[C@H](CSc3ccccc3)Nc3ccc(S(=O)(=O)NC(=O)c4ccc(N5CCN(CC6=C(C78CC(C)(C7)C8)CC(C)(C)CC6)CC5)cc4)cc3S(=O)(=O)C(F)(F)F)CC2)C(C)(C)C)cc1 [Example 26, (2S,4R)-1-((S)-2-(6-(4-((R)-3-((4-(N-(4-(4-((4,4-dimethyl-2-(3-methylbicyclo[1.1.1]pentan-1-yl)cyclohex-1-en-1-yl)methyl)piperazin-1-yl)benzoyl)sulfamoyl)-2-((trifluoromethyl)sulfonyl)phenyl)amino)-4-(phenylthio)butyl)piperazin-1-yl)hexanamido)-3,3-dimethylbutanoyl)-4-hydroxy-N—((S)-1-(4-(4-methylthiazol-5-yl)phenyl)ethyl)pyrrolidine-2-carboxamide] | ≥ 150
2 | Cc1ncsc1-c1ccc(CNC(=O)[C@@H]2C[C@@H](O)CN2C(=O)[C@@H](NC(=O)CCCCCC(=O)N2CCN(CC[C@H](CSc3ccccc3)Nc3ccc(S(=O)(=O)NC(=O)c4ccc(N5CCN(CC6=C(C78CC(C(F)F)(C7)C8)CC(C)(C)CC6)CC5)cc4)cc3S(=O)(=O)C(F)(F)F)CC2)C(C)(C)C)cc1 [Example 45, (2S,4R)-1-((S)-2-(7-(4-((R)-3-((4-(N-(4-(4-((2-(3-(difluoromethyl)bicyclo[1.1.1]pentan-1-yl)-4,4-dimethylcyclohex-1-en-1-yl)methyl)piperazin-1-yl)benzoyl)sulfamoyl)-2-((trifluoromethyl)sulfonyl)phenyl)amino)-4-(phenylthio)butyl)piperazin-1-yl)-7-oxoheptanamido)-3,3-dimethylbutanoyl)-4-hydroxy-N-(4-(4-methylthiazol-5-yl)benzyl)pyrrolidine-2-carboxamide] | ≥ 150
3 | Cc1ncsc1-c1ccc([C@H](CC(=O)NCCCCCC(=O)N2CCN(CC[C@H](CSc3ccccc3)Nc3ccc(S(=O)(=O)NC(=O)c4ccc(N5CCN(CC6=C(C78CC(C(F)F)(C7)C8)CC(C)(C)CC6)CC5)cc4)cc3S(=O)(=O)C(F)(F)F)CC2)NC(=O)[C@@H]2C[C@@H](O)CN2C(=O)[C@@H](NC(=O)C2(F)CC2)C(C)(C)C)cc1 [Example 47] | ≥ 150
4 | Cc1ncsc1-c1ccc([C@H](CC(=O)NCCCCCCN2CCN(CC[C@H](CSc3ccccc3)Nc3ccc(S(=O)(=O)NC(=O)c4ccc(N5CCN(CC6=C(C78CC(C(F)F)(C7)C8)CC(C)(C)CC6)CC5)cc4)cc3S(=O)(=O)C(F)(F)F)CC2)NC(=O)[C@@H]2C[C@@H](O)CN2C(=O)[C@@H](NC(=O)C2(F)CC2)C(C)(C)C)cc1 [Example 48] | ≥ 150
5 | Cc1ncsc1-c1ccc([C@H](CC(=O)NCCCCCCN(C)CC[C@H](CSc2ccccc2)Nc2ccc(S(=O)(=O)NC(=O)c3ccc(N4CCN(CC5=C(C67CC(C(F)F)(C6)C7)CC(C)(C)CC5)CC4)cc3)cc2S(=O)(=O)C(F)(F)F)NC(=O)[C@@H]2C[C@@H](O)CN2C(=O)[C@@H](NC(=O)C2(F)CC2)C(C)(C)C)cc1 [Example 49, (2S,4R)—N-[(1S)-3-[6-[[(3R)-3-[4-[[4-[4-[[2-[3-(difluoromethyl)-1-bicyclo[1.1.1]pentanyl]-4,4-dimethyl-cyclohexen-1-yl]methyl]piperazin-1-yl]benzoyl]sulfamoyl]-2-(trifluoromethylsulfonyl)anilino]-4-phenylsulfanyl-butyl]-methyl-amino]hexylamino]-1-[4-(4-methylthiazol-5-yl)phenyl]-3-oxo-propyl]-1-[(2S)-2-[(1-fluorocyclopropanecarbonyl)amino]-3,3-dimethyl-butanoyl]-4-hydroxy-pyrrolidine-2-carboxamide] | ≥ 150
6 | Cc1cc([C@H](C(=O)N2C[C@H](O)C[C@H]2C(=O)N[C@@H](CC(=O)NCCCCCC(=O)N2CCN(CC[C@H](CSc3ccccc3)Nc3ccc(S(=O)(=O)NC(=O)c4ccc(N5CCN(CC6=C(C78CC(C(F)F)(C7)C8)CC(C)(C)CC6)CC5)cc4)cc3S(=O)(=O)C(F)(F)F)CC2)c2ccc(-c3scnc3C)cc2)C(C)C)on1 [Example 50, (2S,4R)—N—((S)-3-((6-(4-((R)-3-((4-(N-(4-(4-((2-(3-(difluoromethyl)bicyclo[1.1.1]pentan-1-yl)-4,4-dimethylcyclohex-1-en-1-yl)methyl)piperazin-1-yl)benzoyl)sulfamoyl)-2-((trifluoromethyl)sulfonyl)phenyl)amino)-4-(phenylthio)butyl)piperazin-1-yl)-6-oxohexyl)amino)-1-(4-(4-methylthiazol-5-yl)phenyl)-3-oxopropyl)-4-hydroxy-1-((R)-3-methyl-2-(3-methylisoxazol-5-yl)butanoyl)pyrrolidine-2-carboxamide] | ≥ 150
7 | Cc1cc([C@@H](C(=O)N2C[C@H](O)C[C@H]2C(=O)N[C@@H](CC(=O)NCCCCCC(=O)N2CCN(CC[C@H](CSc3ccccc3)Nc3ccc(S(=O)(=O)NC(=O)c4ccc(N5CCN(CC6=C(C78CC(C(F)F)(C7)C8)CC(C)(C)CC6)CC5)cc4)cc3S(=O)(=O)C(F)(F)F)CC2)c2ccc(-c3scnc3C)cc2)C(C)C)on1 [Example 56, (2S,4R)—N—((S)-3-((6-(4-((R)-3-((4-(N-(4-(4-((2-(3-(difluoromethyl)bicyclo[1.1.1]pentan-1-yl)-4,4-dimethylcyclohex-1-en-1-yl)methyl)piperazin-1-yl)benzoyl)sulfamoyl)-2-((trifluoromethyl)sulfonyl)phenyl)amino)-4-(phenylthio)butyl)piperazin-1-yl)-6-oxohexyl)amino)-1-(4-(4-methylthiazol-5-yl)phenyl)-3-oxopropyl)-4-hydroxy-1-((S)-3-methyl-2-(3-methylisoxazol-5-yl)butanoyl)pyrrolidine-2-carboxamide] | ≥ 150

The remaining lines, values ahead:

Row | IC50 [nM] | Compound
8 | ≤ 50 | CN(CCCCCNc1cccc2c1C(=O)N(C1CCC(=O)NC1=O)C2=O)CC[C@H](CSc1ccccc1)Nc1ccc(S(=O)(=O)NC(=O)c2ccc(N3CCN(CC4=C(C56CC(C(F)F)(C5)C6)CC(C)(C)CC4)CC3)cc2)cc1S(=O)(=O)C(F)(F)F (stereo partly drawn) [Example 20, 4-(4-((2-(3-(difluoromethyl)bicycle[1.1.1]pentan-1-yl)-4,4-dimethylcyclohex-1-en-1-yl)methyl)piperazin-1-yl)-N-((4-(((2R)-4-((5-((2-(2,6-dioxopiperidin-3-yl)-1,3-dioxoisoindolin-4-yl)amino)pentyl)(methyl)amino)-1-(phenylthio)butan-2-yl)amino)-3-((trifluoromethyl)sulfonyl)phenyl)sulfonyl)benzamide]
9 | 50 to 150 | CN(CCCCCCNc1cccc2c1C(=O)N(C1CCC(=O)NC1=O)C2=O)CC[C@H](CSc1ccccc1)Nc1ccc(S(=O)(=O)NC(=O)c2ccc(N3CCN(CC4=C(C56CC(C(F)F)(C5)C6)CC(C)(C)CC4)CC3)cc2)cc1S(=O)(=O)C(F)(F)F (stereo partly drawn) [Example 21, 4-(4-((2-(3-(difluoromethyl)bicyclo [1.1.1]pentan-1-yl)-4,4-dimethylcyclohex-1-en-1-yl)methyl)piperazin-1-yl)-N-((4-(((2R)-4-((6-((2-(2,6-dioxopiperidin-3-yl)-1,3-dioxoisoindolin-4-yl)amino)hexyl)(methyl)amino)-1-(phenylthio)butan-2-yl)amino)-3-((trifluoromethyl)sulfonyl)phenyl)sulfonyl)benzamide]
10 | ≥ 150 | CC1(C)CCC(CN2CCN(c3ccc(C(=O)NS(=O)(=O)c4ccc(N[C@H](CCN5CCN(CCCCCc6cccc7c6C(=O)N(C6CCC(=O)NC6=O)C7=O)CC5)CSc5ccccc5)c(S(=O)(=O)C(F)(F)F)c4)cc3)CC2)=C(C23CC(C(F)F)(C2)C3)C1 (stereo partly drawn) [Example 22, 4-(4-((2-(3-(difluoromethyl)bicyclo[1.1.1]pentan-1-yl)-4,4-dimethylcyclohex-1-en-1-yl)methyl)piperazin-1-yl)-N-((4-(((2R)-4-(4-(5-(2-(2,6-dioxopiperidin-3-yl)-1,3-dioxoisoindolin-4-yl)pentyl)piperazin-1-yl)-1-(phenylthio)butan-2-yl)amino)-3-((trifluoromethyl)sulfonyl)phenyl)sulfonyl)benzamide]
11 | 50 to 150 | Cc1ncsc1-c1ccc([C@H](C)NC(=O)[C@@H]2C[C@@H](O)CN2C(=O)[C@@H](NC(=O)CCCCCCC(=O)N2CCN(CC[C@H](CSc3ccccc3)Nc3ccc(S(=O)(=O)NC(=O)c4ccc(N5CCN(CC6=C(C78CC(C(F)F)(C7)C8)CC(C)(C)CC6)CC5)cc4)cc3S(=O)(=O)C(F)(F)F)CC2)C(C)(C)C)cc1 [Example 23, (2S,4R)-1-((S)-2-(8-(4-((R)-3-((4-(N-(4-(4-((2-(3-(difluoromethyl)bicyclo[1.1.1]pentan-1-yl)-4,4-dimethylcyclohex-1-en-1-yl)methyl)piperazin-1-yl)benzoyl)sulfamoyl) ((trifluoromethyl)sulfonyl)phenyl)amino)-4-(phenylthio)butyl)piperazin-1-yl)-8-oxooctanamido)-3,3-dimethylbutanoyl)-4-hydroxy-N—((S)-1-(4-(4-methylthiazol-5-yl)phenyl)ethyl)pyrrolidine-2-carboxamide]
12 | ≤ 50 | CC1(C)CCC(CN2CCN(c3ccc(C(=O)NS(=O)(=O)c4ccc(N[C@H](CCN5CCN(CCCC#Cc6cccc7c6CN(C6CCC(=O)NC6=O)C7=O)CC5)CSc5ccccc5)c(S(=O)(=O)C(F)(F)F)c4)cc3)CC2)=C(C23CC(C(F)F)(C2)C3)C1 (stereo partly drawn) [Example 29, 4-(4-((2-(3-(difluoromethyl)bicyclo[1.1.1]pentan-1-yl)-4,4-dimethylcyclohex-1-en-1-yl)methyl)piperazin-1-yl)-N-((4-(((2R)-4-(4-(5-(2-(2,6-dioxopiperidin-3-yl)-1-oxoisoindolin-4-yl)pent-4-yn-1-yl)piperazin-1-yl)-1-(phenylthio)butan-2-yl)amino)-3-((trifluoromethyl)sulfonyl)phenyl)sulfonyl)benzamide]
